PubChem BioAssay AID2060624 (Molecular Pharmacology Branch, DTP, NCI, 2025)
Several values for one entry are separate records, joined by “and”; a condition that tells them apart may be missing. Equal values may be shown once.

Test system: 217524-143-R1-J4-PDC spheroids with HUVEC/MSC, viability
Test: Anticancer human tumor 217524-143-R1-J4-PDC patient-derived pancreatic carcinoma cell line growth inhibition [CLK]
Details: for viability, T/C: stronger effect = lower value
From the text: A high-throughput screen of multi-cell type tumor spheroids was designed to identify active combinations of […] and targeted small molecules. Complex spheroids include a stromal component modeled by human endothelial cells (HUVEC) and fibroblasts modeled by human mesenchymal stem cells (MSCs). The concentration ranges selected for each drug and investigational agent were based upon clinically achievable concentrations if the clinical Cmax of the agent was known.
Compounds. The drugs and investigational agents: cirtuvivint (SM08502; NSC835563), CC-671 (NSC850746), vemurafenib (NSC761431), tapotoclax (NSC804041), sotorasib (NSC818433), adagrasib (NSC831453), MRTX-1133 (NSC836407), BAY2416964 (NSC825713), copanlisib (NSC816437), inavolisib (NSC800729), abemaciclib (NSC768073), osimertinib (NSC779217), entinostat (NSC756642), eltanexor (KPT-8602, NSC794443), venetoclax (NSC766270), ceralasertib (NSC777638), bortezomib (NSC756655), olaparib (NSC753686), talazoparib (NSC767125), alisertib (NSC759677), peposertib (NSC802822), gemcitabine (NSC613327), 5-fluorouracil (NSC19893), SN-38 (NSC673596), oxaliplatin (NSC266046), paclitaxel (NSC125973), and doxorubicin (NSC123127), were obtained from the National Cancer Institute (NCI) Developmental Therapeutics Program Chemical Repository. The FDA-approved anticancer drug set is available from the Developmental Therapeutics Program at https://dtp.cancer.gov/organization/dscb/obtaining/available plates.htm. […] The stock solutions were prepared in dimethyl sulfoxide (DMSO, Sigma-Aldrich, St. Louis, MO, cat. D2650), except for the platinum complexes which were prepared in saline (Quality Biological, Gaithersburg, MD, cat. 114-055-101), at 800-fold the tested concentration and stored at -70 degrees C prior to their use. All drugs and investigational agents were tested over a range starting from a high concentration at or near the clinical Cmax and decreasing in half-log increments. If the clinical Cmax for an agent had not been determined, the highest concentration tested was 10 microM.
Cell Culture. All cells were maintained in an incubator at 37 degrees C and 5% CO2 with 95% humidity. The PDC lines were cultured according to standard operating procedures established by the NCI PDMR. Briefly, all PDCs were thawed and cultured in Matrigel-coated flasks prepared with a working solution of 1X Ham's F-12 nutrient mix, without supplementation (Invitrogen, Waltham, MA, cat. 11765054), 100 U/mL penicillin-streptomycin (Invitrogen, cat. 15140122), and 2.5% Matrigel (Corning Inc., Corning, NY, cat. 354248) for the first three passages. The 947758-054-R-J2-PDC line was cultured in 6B/Colon 1A media, which includes advanced DMEM/F-12 (Thermo Fisher Scientific, cat. 12634028), 10 mM HEPES (Thermo Fisher Scientific, cat. 15630080), 1X GlutaMAX supplement (Thermo Fisher Scientific, cat. 35050061), 0.1 mg/mL primocin (InvivoGen, cat. ant-pm-2), 10% defined fetal bovine serum, heat inactivated (HyClone Laboratories Inc., cat. SH30070.03HI), 1.25 mM N-Acetyl-L-cysteine (Sigma-Aldrich, cat. A9165), 10 mM nicotinamide (Sigma-Aldrich, cat. N0636), 1X B-27 supplement (Thermo Fisher Scientific, cat. 17504044), 1X N-2 supplement (Thermo Fisher Scientific, cat. 17502048), and 10 microM Y-27632 dihydrochloride (Tocris Bioscience, cat. 1254). The 876862-298-R-J1-PDC was cultured in 6E media, which includes all 6B/Colon 1A media components plus 50% L-WRN conditioned media (ATCC, cat. CRL-3276), 50 ng/mL recombinant human EGF recombinant protein (hEGF; Thermo Fisher Scientific, cat. PHG0311), 10 ng/mL recombinant human fibroblast growth factor 10 (hGFG-10; PeproTech, cat. 100-26), 1 ng/mL recombinant human fibroblast growth factor 2 (hFGF-2; PeproTech, cat. 100-18B), and 1 µM prostaglandin E2 (PGE2; Tocris, cat. 2296). The 227483-062-R1-J1-PDC line was cultured in Panc media, containing all 6E components except hFGF-2, with the addition of 500 nM SB-431542 (Selleckchem, cat. S1067) and 10 nM gastrin (Tocris, cat. 3006). […]
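Also: spheroids exposed to agents for seven days before reading.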
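For viability, T/C in this document: 100% = DMSO vehicle control viability.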

Row | Structure (SMILES) | viability, T/C (compound 0.0316 µM) | viability, T/C (compound 0.1 µM) | viability, T/C (compound 0.316 µM) | viability, T/C (compound 1 µM) | viability, T/C (compound 3.16 µM) | viability, T/C (compound 10 µM) | IC50 (curve of compound) | viability, T/C (compound 0.000949 µM) | viability, T/C (compound 0.003 µM) | viability, T/C (compound 0.00949 µM) | viability, T/C (compound 0.03 µM) | viability, T/C (compound 0.0949 µM) | viability, T/C (compound 0.3 µM) | viability, T/C (compound 0.00316 µM) | viability, T/C (compound 0.01 µM) | IC50 (compound alone, run of 08/01/2023) | viability, T/C (compound 0.000316 µM) | viability, T/C (compound 0.001 µM) | viability, T/C (compound 0.949 µM) | viability, T/C (compound 3 µM)
1 | C#Cc1c(F)ccc2cc(O)cc(-c3ncc4c(N5CC6CCC(C5)N6)nc(OCC56CCCN5CC(F)C6)nc4c3F)c12 (centres undefined) | 101% and 98% | 81.7% and 90.2% | 88.5% and 86.4% | 85% and 85.9% | 86.7% and 68% | 59% and 77.1% | > 10000 nM |  |  |  |  |  |  |  |  |  |  |  |  | 
2 | C=C(F)C(=O)N1CCN(c2nc(OCC3CCCN3C)nc3c2CCN(c2cccc4cccc(Cl)c24)C3)CC1CC#N (centres undefined) | 91.8% and 102% | 113% and 96.7% | 109% and 106% | 73.5% and 108% | 85.6% and 87.4% | 3.02% and 4.54% | 4870 nM and 5320 nM |  |  |  |  |  |  |  |  |  |  |  |  | 
3 | C=CC(=O)N1CCN(c2nc(=O)n(-c3c(C)ccnc3C(C)C)c3nc(-c4c(O)cccc4F)c(F)cc23)C(C)C1 (centres undefined) | 98.7% and 109% | 72.6% and 98% | 78.3% and 113% | 96.4% and 111% | 126% and 111% | 103% | > 10000 nM |  |  |  |  |  |  |  |  |  |  |  |  | 
4 | C=CC(=O)Nc1cc(Nc2nccc(-c3cn(C)c4ccccc34)n2)c(OC)cc1N(C)CCN(C)C |  |  |  |  |  |  | 137 nM and 78.7 nM | 106% and 100% | 83.4% and 96.4% | 100% and 92.1% | 90.3% and 81.1% | 57.1% and 43.5% | 35.3% and 33.1% |  |  |  |  |  |  | 
5 | CC(=O)O[C@H]1C(=O)[C@@]2(C)[C@H]([C@H](OC(=O)c3ccccc3)[C@]3(O)C[C@H](OC(=O)[C@H](O)[C@@H](NC(=O)c4ccccc4)c4ccccc4)C(C)=C1C3(C)C)[C@]1(OC(C)=O)CO[C@@H]1C[C@@H]2O | 12.7% and 12% | 12.4% and 12.9% | 10.1% and 12.3% | 9.86% and 10.8% | 13.6% and 14.1% | 16% and 16.4% | < 31.6 nM |  |  |  |  |  |  |  |  |  |  |  |  | 
6 | CC(C)CC(NC(=O)C(Cc1ccccc1)NC(=O)c1cnccn1)B(O)O (centres undefined) |  |  |  |  |  |  | 4.99 nM and 4.09 nM | 107% and 103% | 68% and 61.1% | 27% and 19.8% | 10.3% and 6.71% | 6.69% and 3.3% | 2.39% and 1.64% |  |  |  |  |  |  | 
7 | CC(CO)NC(=O)c1cc(-c2ccc(Cl)cc2)nn(-c2cnn(C)c2)c1=O (centres undefined) | 110% and 92.8% | 94.5% and 72.6% | 91.5% and 92.9% | 89.1% and 89.9% | 106% and 95.8% | 78.1% and 85.5% | > 10000 nM |  |  |  |  |  |  |  |  |  |  |  |  | 
8 | CC(Nc1ccc2c(c1)OCCn1cc(N3C(=O)OCC3C(F)F)nc1-2)C(N)=O (centres undefined) | 77.3% and 57.6% | 36% and 29.8% | 16.3% and 11.6% | 8.54% and 7.09% | 6.58% and 6.55% | 4.15% and 4.2% | 67.6 nM and 43.3 nM |  |  |  |  |  |  |  |  |  |  |  |  | 
9 | CC1(C)CCC(CN2CCN(c3ccc(C(=O)NS(=O)(=O)c4ccc(NCC5CCOCC5)c([N+](=O)[O-])c4)c(Oc4cnc5[nH]ccc5c4)c3)CC2)=C(c2ccc(Cl)cc2)C1 | 121% and 110% | 89.1% and 75.1% | 99.5% and 103% | 89.8% and 80.3% | 101% and 86.2% | 10.7% and 79.9% | 6030 nM and > 10000 nM |  |  |  |  |  |  |  |  |  |  |  |  | 
10 | CC1COCCN1c1cc(C2(S(C)(=N)=O)CC2)nc(-c2ccnc3[nH]ccc23)n1 (centres undefined) | 102% and 109% | 94.1% and 75.7% | 87.9% and 82.8% | 89.5% and 69.8% | 35.7% and 35% | 21.4% and 20.1% | 2330 nM and 1890 nM |  |  |  |  |  |  |  |  |  |  |  |  | 
11 | CCCS(=O)(=O)Nc1ccc(F)c(C(=O)c2c[nH]c3ncc(-c4ccc(Cl)cc4)cc23)c1F | 111% and 94.5% | 110% and 95% | 109% and 117% | 138% and 127% | 144% and 134% | 59.8% and 57% | > 10000 nM |  |  |  |  |  |  |  |  |  |  |  |  | 
12 | CCN1CCN(Cc2ccc(Nc3ncc(F)c(-c4cc(F)c5nc(C)n(C(C)C)c5c4)n3)nc2)CC1 | 90.5% and 66.1% | 61.9% and 40.7% | 40.3% and 33.4% | 44% and 39.1% |  |  | 200 nM and 64 nM |  |  |  |  |  |  | 104% and 92.1% | 74.8% and 70.1% |  |  |  |  | 
13 | CCc1c2c(nc3ccc(O)cc13)-c1cc3c(c(=O)n1C2)COC(=O)[C@]3(O)CC | 33.3% and 33.9% | 26.8% and 28.3% | 20.4% and 16.5% | 5.13% and 2.88% |  |  | 3.31 nM and 4.7 nM |  |  |  |  |  |  | 51.5% and 55.3% | 42% and 40.3% |  |  |  |  | 
14 | CNC(=O)c1ccc(Nc2nc(OC3CCCC3)c3c(-c4ccc5nc(C)oc5c4)c[nH]c3n2)c(OC)c1 | 91.6% [middle of 12 runs] | 46.5% [middle of 12 runs] | 37.7% [middle of 12 runs] | 31.2% [middle of 12 runs] | 27.4% [middle of 12 runs] | 27.3% [middle of 12 runs] |  |  |  |  |  |  |  |  |  | 96.4 nM [middle of 12 runs] |  |  |  | 
15 | COC1C=CCC(C)C(C)S(=O)(=O)NC(=O)c2ccc3c(c2)N(CC2CCC21)CC1(CCCc2cc(Cl)ccc21)CO3 (centres undefined) | 93.3% and 85.4% | 112% and 93.6% | 112% | 123% and 108% | 125% and 110% | 26.2% and 28.4% | 7310 nM and 7140 nM |  |  |  |  |  |  |  |  |  |  |  |  | 
16 | COc1c(OCCCN2CCOCC2)ccc2c3n(c(=NC(=O)c4cnc(N)nc4)nc12)CCN3 | 16.1% and 11.7% | 5% and 4.43% | 2.63% and 3% | 2.47% and 2.32% |  |  | 7.04 nM and 5.59 nM |  |  |  |  |  |  | 74.2% and 71.6% | 39.2% and 27.7% |  |  |  |  | 
17 | Cn1ncnc1[C@H]1c2n[nH]c(=O)c3cc(F)cc(c23)N[C@@H]1c1ccc(F)cc1 | 113% and 106% | 102% and 83.5% |  |  |  |  | > 100 nM |  |  |  |  |  |  | 103% and 102% | 85.5% and 93.6% |  | 101% and 96.4% | 93.3% and 90.1% |  | 
18 | NC(=O)C(=Cn1cnc(-c2cc(C(F)(F)F)cc(C(F)(F)F)c2)n1)c1cncnc1 |  |  |  |  |  |  | 29 nM and 18.2 nM |  |  | 73.8% and 67.8% | 49.3% and 36.5% | 27.8% and 21.1% | 21.7% and 27.9% |  |  |  |  |  | 25.6% and 28.4% | 23.2% and 20.4%
19 | Nc1ccccc1NC(=O)c1ccc(CNC(=O)OCc2cccnc2)cc1 | 112% and 117% | 102% and 93.9% | 97.4% and 104% | 89.9% and 98.1% | 61.6% and 70.6% | 31.1% and 34.7% | 5090 nM and 6150 nM |  |  |  |  |  |  |  |  |  |  |  |  | 
20 | Nc1ccn(C2OC(CO)C(O)C2(F)F)c(=O)n1 (centres undefined) | 53.5% and 66.5% | 28.6% and 26% | 22.5% and 22.4% | 24.3% and 26% | 25.1% and 29.9% | 29.4% and 29.8% | 37.1 nM and 51.3 nM |  |  |  |  |  |  |  |  |  |  |  |  | 
21 | O=C(c1cc(Cc2n[nH]c(=O)c3ccccc23)ccc1F)N1CCN(C(=O)C2CC2)CC1 | 100% and 92.1% | 81.1% and 72% | 103% and 91.9% | 89.3% and 89.4% | 96.2% and 123% | 86.3% and 79.1% | > 10000 nM |  |  |  |  |  |  |  |  |  |  |  |  | 
22 | O=c1[nH]cc(F)c(=O)[nH]1 | 94.6% and 72.3% | 93.9% and 80.7% | 56.5% and 62.8% | 38% and 36.6% | 36.2% and 32.5% | 29.7% and 25.7% | 457 nM and 563 nM |  |  |  |  |  |  |  |  |  |  |  |  | 
